From patent publication US9562036B2, “Fluoromethyl-substituted pyrrole carboxamides as CaV2.2 calcium channel blockers” (GRÜNENTHAL GMBH, priority 2013, dated 2017) come the findings set out here.

In the test the target is T1, Human CaV2.2 channels (Homo sapiens, UniProt Q00975).
T1 construct: expressed in transfected cells; also stably expressing Kir2.3)
T1 sequence (Q00975 whole entry): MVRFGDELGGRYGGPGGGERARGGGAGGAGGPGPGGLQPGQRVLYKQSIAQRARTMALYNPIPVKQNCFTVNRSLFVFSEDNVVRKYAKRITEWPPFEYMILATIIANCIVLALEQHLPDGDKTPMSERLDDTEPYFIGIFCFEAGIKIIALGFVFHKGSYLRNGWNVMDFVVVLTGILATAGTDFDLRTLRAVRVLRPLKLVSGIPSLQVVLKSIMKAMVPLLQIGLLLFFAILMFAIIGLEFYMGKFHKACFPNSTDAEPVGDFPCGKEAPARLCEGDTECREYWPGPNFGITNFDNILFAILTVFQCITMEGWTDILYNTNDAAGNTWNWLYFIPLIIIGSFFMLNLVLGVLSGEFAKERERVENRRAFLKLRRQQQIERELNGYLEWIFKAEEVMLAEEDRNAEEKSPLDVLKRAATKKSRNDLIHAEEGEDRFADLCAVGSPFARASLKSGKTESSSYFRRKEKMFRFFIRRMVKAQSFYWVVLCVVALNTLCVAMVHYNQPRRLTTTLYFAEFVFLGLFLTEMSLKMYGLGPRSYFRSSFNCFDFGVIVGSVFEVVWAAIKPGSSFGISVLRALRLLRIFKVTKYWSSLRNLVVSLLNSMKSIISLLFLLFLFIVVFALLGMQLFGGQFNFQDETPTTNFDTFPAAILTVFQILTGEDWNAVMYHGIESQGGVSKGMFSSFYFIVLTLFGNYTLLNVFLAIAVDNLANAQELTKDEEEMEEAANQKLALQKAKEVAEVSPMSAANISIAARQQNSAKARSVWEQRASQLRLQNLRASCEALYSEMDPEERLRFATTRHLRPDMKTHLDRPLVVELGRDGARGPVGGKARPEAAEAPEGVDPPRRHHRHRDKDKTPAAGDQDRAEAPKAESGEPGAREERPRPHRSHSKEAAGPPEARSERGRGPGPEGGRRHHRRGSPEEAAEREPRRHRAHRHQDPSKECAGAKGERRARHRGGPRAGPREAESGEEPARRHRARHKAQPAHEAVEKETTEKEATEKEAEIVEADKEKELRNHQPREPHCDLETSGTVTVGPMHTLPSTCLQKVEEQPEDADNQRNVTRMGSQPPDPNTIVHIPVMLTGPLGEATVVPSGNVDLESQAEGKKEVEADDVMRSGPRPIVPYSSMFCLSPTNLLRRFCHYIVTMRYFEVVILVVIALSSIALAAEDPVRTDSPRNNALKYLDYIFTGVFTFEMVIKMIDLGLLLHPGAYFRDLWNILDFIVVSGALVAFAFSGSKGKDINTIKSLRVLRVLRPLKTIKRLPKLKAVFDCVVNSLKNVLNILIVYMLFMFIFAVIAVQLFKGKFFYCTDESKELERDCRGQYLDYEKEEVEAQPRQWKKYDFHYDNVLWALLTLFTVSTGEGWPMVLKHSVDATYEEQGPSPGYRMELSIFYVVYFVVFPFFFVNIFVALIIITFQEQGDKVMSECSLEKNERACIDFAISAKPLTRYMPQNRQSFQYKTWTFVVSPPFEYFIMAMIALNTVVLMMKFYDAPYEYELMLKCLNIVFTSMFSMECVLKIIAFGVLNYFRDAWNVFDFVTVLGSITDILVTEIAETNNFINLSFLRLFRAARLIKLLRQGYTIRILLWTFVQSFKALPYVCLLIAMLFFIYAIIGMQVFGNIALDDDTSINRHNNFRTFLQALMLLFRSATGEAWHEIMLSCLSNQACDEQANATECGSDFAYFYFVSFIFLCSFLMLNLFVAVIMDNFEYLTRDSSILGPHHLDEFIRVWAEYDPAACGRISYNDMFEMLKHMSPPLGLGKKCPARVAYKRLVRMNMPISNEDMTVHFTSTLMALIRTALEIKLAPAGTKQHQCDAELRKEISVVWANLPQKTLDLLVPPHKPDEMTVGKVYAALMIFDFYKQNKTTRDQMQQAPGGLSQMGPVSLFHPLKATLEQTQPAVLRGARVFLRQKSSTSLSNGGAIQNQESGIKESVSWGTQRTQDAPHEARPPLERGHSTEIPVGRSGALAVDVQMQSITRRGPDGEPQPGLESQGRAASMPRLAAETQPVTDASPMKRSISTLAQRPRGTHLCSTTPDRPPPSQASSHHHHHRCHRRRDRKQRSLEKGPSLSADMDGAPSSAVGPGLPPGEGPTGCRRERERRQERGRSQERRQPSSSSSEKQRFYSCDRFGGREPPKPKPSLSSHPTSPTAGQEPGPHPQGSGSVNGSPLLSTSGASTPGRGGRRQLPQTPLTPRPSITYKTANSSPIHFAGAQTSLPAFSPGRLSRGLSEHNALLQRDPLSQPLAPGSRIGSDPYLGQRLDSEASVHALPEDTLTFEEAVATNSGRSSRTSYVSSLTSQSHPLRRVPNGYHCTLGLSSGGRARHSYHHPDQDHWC
The test is described as follows: Fluorescent assay for CaV2.2 channels using potassium depolarization to induce channel opening (FLIPR, Fluo 4). In kind it is cell-based. Conditions: 3 μM test compound; 30 mM KCl alternative assay buffer (inactivated channel state); HEK293 cells; read-out: %-Inhib (CaV2.2) @3 μM @30 mM KCl. From the text:
In the process, the Ca^2+ influx is quantified in the FLIPR assay with the aid of a Ca^2+-sensitive dye (type Fluo-4, Molecular Probes Europe BV, Leiden, the Netherlands) in a fluorescent imaging plate reader (FLIPR 3, Molecular Devices, Sunnyvale, USA), as described hereinafter.
2. Assay Descriptions and Biological Data: 2.1 Fluorescent Assay for CaV2.2 Channels Using Potassium Depolarization to Induce Channel Opening
Human CaV2.2 channels were stably expressed in HEK293 cells together with alpha2-delta and beta subunits of voltage gated calcium channels. In addition, an inwardly rectifying potassium channel (Kir2.3) was stably expressed in these cells to augment control of the cell membrane potential by the concentration of extracellular potassium ions. Raise of the extracellular potassium concentration leads to depolarization of the membrane potential and thus regulates the voltage dependent state of CaV2.2 channels. For preparation, cells were seeded in black poly-D-lysine coated 96-well plates (Becton Dickinson, Biocoat 4640) in 100 μL medium [500 mL DMEM/F-12 plus Glutamax (Invitrogen 31331-093) plus 5.5 mL MEM NEAA 100× (Invitrogen 11140-035) plus 50 mL FBS decomplemented (Invitrogen 10270-106) plus 200 μg/mL Geneticin (Invitrogen 10131-027) plus 50 μg/mL Hygromycin B (Invitrogen 10687-010) plus 2 μg/mL Blasticidin (anti-bl5b Invivo-Gen) plus 0.2 μg/mL Puromycin (A 11138-03)] at a cell density of 30.000 cells per well. Plates were incubated at 37° C. (5% CO2) for 20 to 23 h. On the day of experiment medium was discarded and cells were loaded with Fluo 4 by addition of 100 μL of basic assay buffer (10 mM HEPES, 1 mM KCl, 149 mM NaCl, 0.8 mM CaC2, 1.7 mM MgCl2, 10 mM Glucose, 0.1% BSA. pH 7.4) containing 2 μM Fluo 4 (Molecular Probes; F-14201), 0.01% pluronic acid (Molecular Probes; P-6866) and 2.5 mM probenecid (Molecular Probes; P36400). Cells were incubated in the dark at 25° C. for 60 min. Then dye containing buffer was discarded and 100 μL basic (1 mM KCl) or alternative (30 mM KCl) assay buffer was added. The alternative assay buffer contained altered concentrations of KCl (30 mM) and NaCl (120 mM) and was used in order to promote the inactivated channel state. After that 25 μL of basic or alternative assay buffer with or without test compound were added and cells were incubated again in the dark at 25° C. for 15 min. Fluorescence intensity was measured on a FLIPR 3 instrument (Molecular Devices Corp., Sunnyvale, Calif.) with excitation at 480 nm and emission at 535 nm. After continuously reading fluorescence for 30 sec, 50 μL of basic assay buffer containing 210 mM KCl (NaCl omitted) were added for depolarization. Peak fluorescent signal intensity was determined and the amplitude of the peak signal, normalized to base line, was used to measure channel inhibition by test compounds.
For `Cc1cc(C#N)ncc1-c1c(C)c(C(F)(F)F)n(Cc2ccccc2)c1C(=O)N1CCOCC1` [Example 26, 5-[1-Benzyl-4-methyl-2-(morpholine-4-carbonyl)-5-(trifluoromethyl)-1H-pyrrol-3-yl]-4-methyl-pyridine-2-carbonitrile], the inhibition at 3 µM was in the range of 75 to 95%.

As for `Cc1cc(Cl)ncc1-c1c(C)c(C(F)(F)F)n(Cc2ccccc2)c1C(=O)N1CCOCC1` [Example 27, [1-Benzyl-3-(6-chloro-4-methyl-pyridin-3-yl)-4-methyl-5-(trifluoromethyl)-1H-pyrrol-2-yl]-morpholin-4-yl-methanone], the inhibition at 3 µM lay within 75 to 95%.

In the case of `COc1cc(C)c(-c2c(C)c(C(F)(F)F)n(Cc3ccccc3)c2C(=O)N2CCOCC2)cn1` [Example 28, [1-Benzyl-3-(6-methoxy-4-methyl-pyridin-3-yl)-4-methyl-5-(trifluoromethyl)-1H-pyrrol-2-yl]-morpholin-4-yl-methanone], the inhibition at 3 µM fell in the range of 75 to 95%. With `Cc1c(-c2ccc(Cl)nn2)c(C(=O)N2CCOCC2)n(Cc2ccccc2)c1C(F)(F)F` [Example 29, [1-Benzyl-3-(6-chloro-pyridazin-3-yl)-4-methyl-5-(trifluoromethyl)-1H-pyrrol-2-yl]-morpholin-4-yl-methanone], the inhibition at 3 µM is 40 to 75%. On to `COc1cnc(-c2c(C)c(C(F)(F)F)n(Cc3ccccc3)c2C(=O)N(C)CC(C)(C)C)nc1` [Example 30, 1-Benzyl-3-(5-methoxypyrimidin-2-yl)-N,4-dimethyl-N-neopentyl-5-(trifluoromethyl)-1H-pyrrole-2-carboxamide], for which the inhibition at 3 µM was in the range of 75 to 95%. To `Cc1c(-c2ccc(F)cn2)c(C(=O)N(C)CC(C)(C)C)n(Cc2ccccc2)c1C(F)(F)F` [Example 31, 1-Benzyl-3-(5-fluoropyridin-2-yl)-N,4-dimethyl-N-neopentyl-5-(trifluoromethyl)-1H-pyrrole-2-carboxamide] belongs more than 95%.

With `Cc1c(-c2ccnnc2)c(C(=O)N(C)CC(C)(C)C)n(Cc2ccccc2)c1C(F)(F)F` [Example 32, 1-Benzyl-N,4-dimethyl-N-neopentyl-3-(pyridazin-4-yl)-5-(trifluoromethyl)-1H-pyrrole-2-carboxamide], the inhibition at 3 µM fell in the range of 75 to 95%. To `Cc1c(-c2ncc(F)cn2)c(C(=O)N(C)CC(C)(C)C)n(Cc2ccccc2)c1C(F)(F)F` [Example 33, 1-Benzyl-3-(5-fluoropyrimidin-2-yl)-N,4-dimethyl-N-neopentyl-5-(trifluoromethyl)-1H-pyrrole-2-carboxamide] belongs more than 95%.

In the case of `Cc1c(-c2cnccn2)c(C(=O)N(C)CC(C)(C)C)n(Cc2ccccc2)c1C(F)(F)F` [Example 34, 1-Benzyl-N,4-dimethyl-N-neopentyl-3-(pyrazin-2-yl)-5-(trifluoromethyl)-1H-pyrrole-2-carboxamide], the inhibition at 3 µM was in the range of 75 to 95%. With `Cc1c(-c2ncccn2)c(C(=O)N(C)CC(C)(C)C)n(Cc2ccccc2)c1C(F)(F)F` [Example 35, 1-Benzyl-N,4-dimethyl-N-neopentyl-3-(pyrimidin-2-yl)-5-(trifluoromethyl)-1H-pyrrole-2-carboxamide] the figure was 75 to 95%; with `Cc1c(-c2ccc(F)cn2)c(C(=O)N2CCOCC2)n(Cc2ccccc2)c1C(F)(F)F` [Example 36, (1-Benzyl-3-(5-fluoropyridin-2-yl)-4-methyl-5-(trifluoromethyl)-1H-pyrrol-2-yl)(morpholino)methanone], 75 to 95%. Turning to `Cc1c(-c2ccnnc2)c(C(=O)N2CCOCC2)n(Cc2ccccc2)c1C(F)(F)F` [Example 37, (1-Benzyl-4-methyl-3-(pyridazin-4-yl)-5-(trifluoromethyl)-1H-pyrrol-2-yl)(morpholino)methanone], the inhibition at 3 µM was 40 to 75%. To `Cc1c(-c2ncc(F)cn2)c(C(=O)N2CCOCC2)n(Cc2ccccc2)c1C(F)(F)F` [Example 38, (1-Benzyl-3-(5-fluoropyrimidin-2-yl)-4-methyl-5-(trifluoromethyl)-1H-pyrrol-2-yl)(morpholino)methanone] belongs 40 to 75%; to `Cc1c(-c2cnccn2)c(C(=O)N2CCOCC2)n(Cc2ccccc2)c1C(F)(F)F` [Example 39, (1-Benzyl-4-methyl-3-(pyrazin-2-yl)-5-(trifluoromethyl)-1H-pyrrol-2-yl)(morpholino)methanone], 40 to 75%. With `Cc1c(-c2ncccn2)c(C(=O)N2CCOCC2)n(Cc2ccccc2)c1C(F)(F)F` [Example 40, (1-Benzyl-4-methyl-3-(pyrimidin-2-yl)-5-(trifluoromethyl)-1H-pyrrol-2-yl)(morpholino)methanone] the figure was 40 to 75%; with `Cc1c(-c2ccc(Cl)cn2)c(C(=O)N(C)CC(C)(C)C)n(Cc2ccccc2)c1C(F)(F)F` [Example 41, 1-Benzyl-3-(5-chloro-pyridin-2-yl)-N-(2,2-dimethyl-propyl)-N,4-dimethyl-5-(trifluoromethyl)-1H-pyrrole-2-carboxylic acid amide], more than 95%. On to `Cc1c(-c2ccc(Cl)cn2)c(C(=O)N2CCOCC2)n(Cc2ccccc2)c1C(F)(F)F` [Example 42, [1-Benzyl-3-(5-chloro-pyridin-2-yl)-4-methyl-5-(trifluoromethyl)-1H-pyrrol-2-yl]-morpholin-4-yl-methanone], for which the inhibition at 3 µM was more than 95%. For `Cc1c(-c2ccc(Cl)cn2)c(C(=O)N(C)CCS(C)(=O)=O)n(Cc2ccccc2)c1C(F)(F)F` [Example 43, 1-Benzyl-3-(5-chloro-pyridin-2-yl)-N,4-dimethyl-N-(2-methylsulfonyl-ethyl)-5-(trifluoromethyl)-1H-pyrrole-2-carboxylic acid amide], the inhibition at 3 µM was more than 95%.

With `Cc1c(-c2ncc(Cl)cn2)c(C(=O)N2CCS(=O)(=O)CC2)n(Cc2ccccc2)c1C(F)(F)F` [Example 44, [1-Benzyl-3-(5-chloro-pyrimidin-2-yl)-4-methyl-5-(trifluoromethyl)-1H-pyrrol-2-yl]-(1,1-dioxo-[1,4]thiazinan-4-yl)-methanone], the inhibition at 3 µM was 75 to 95%. With `Cc1c(-c2ncc(Cl)cn2)c(C(=O)N2CCOC(C)(C)C2)n(Cc2ccccc2)c1C(F)(F)F` [Example 45, [1-Benzyl-3-(5-chloro-pyrimidin-2-yl)-4-methyl-5-(trifluoromethyl)-1H-pyrrol-2-yl]-(2,2-dimethyl-morpholin-4-yl)-methanone] the figure was more than 95%; with `Cc1c(-c2ncc(Cl)cn2)c(C(=O)NC2CC2)n(Cc2ccccc2)c1C(F)(F)F` [Example 46, 1-Benzyl-3-(5-chloro-pyrimidin-2-yl)-N-cyclopropyl-4-methyl-5-(trifluoromethyl)-1H-pyrrole-2-carboxylic acid amide], 40 to 75%; with `Cc1c(-c2ncc(Cl)cn2)c(C(=O)N2CCNC(=O)C2)n(Cc2ccccc2)c1C(F)(F)F` [Example 47, 4-[1-Benzyl-3-(5-chloro-pyrimidin-2-yl)-4-methyl-5-(trifluoromethyl)-1H-pyrrole-2-carbonyl]-piperazin-2-one], 40 to 75%. With `Cc1c(-c2ncc(Cl)cn2)c(C(=O)N(C)CC(C)(C)C(N)=O)n(Cc2ccccc2)c1C(F)(F)F` [Example 48, 1-Benzyl-N-(2-carbamoyl-2-methyl-propyl)-3-(5-chloro-pyrimidin-2-yl)-N,4-dimethyl-5-(trifluoromethyl)-1H-pyrrole-2-carboxylic acid amide] the figure was more than 95%; with `Cc1c(-c2ncc(Cl)cn2)c(C(=O)N(C)CC(C)(C)C#N)n(Cc2ccccc2)c1C(F)(F)F` [Example 49, 1-Benzyl-3-(5-chloro-pyrimidin-2-yl)-N-(2-cyano-2-methyl-propyl)-N,4-dimethyl-5-(trifluoromethyl)-1H-pyrrole-2-carboxylic acid amide], more than 95%. With `Cc1c(-c2ccc(Cl)cn2)c(C(=O)N(C)C(C)C)n(Cc2ccccc2)c1C(F)(F)F` [Example 50, 1-Benzyl-3-(5-chloro-pyridin-2-yl)-N-isopropyl-N,4-dimethyl-5-(trifluoromethyl)-1H-pyrrole-2-carboxylic acid amide] the figure was more than 95%.
